The supplement of paper PMC10307832

What was measured:
Assay in all cases: relative viability (nuclei count vs DMSO), 5 days (fraction); higher = more cells survive
[1] = compound: C/C(=N\NC(=S)N1CCC1)/C2=CC=CC=N2 + COc1cccc2cc(-c3nc([C@H]4CC[C@H](C(=O)O)CC4)n4ncnc(N)c34)[nH]c12 [OSI-027] (partner 0.5 µM)
How it was run: (§1)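 Relative viability equals treated-well nuclei counts divided by vehicle-well nuclei counts. Counts came from 4× images of lung cancer cell lines grown in 1536-well plates for 5 days after pin-tool dosing on the day after seeding. Dosing used one drug alone or a fixed anchor-drug dose plus five library-drug doses (not always all listed) in √10 steps, and values are medians of duplicate plates.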

[2] = compound: C/C(=N\NC(=S)N1CCC1)/C2=CC=CC=N2 + C[C@@H](Oc1cc(-c2cnn(C3CCNCC3)c2)cnc1N)c1c(Cl)ccc(F)c1Cl [Crizotinib] (partner 1 µM)
How it was run: as §1

[3] = compound: C/C(=N\NC(=S)N1CCC1)/C2=CC=CC=N2 + C[C@]1(O)C[C@@H](c2nc(-c3ccc4ccc(-c5ccccc5)nc4c3)c3c(N)nccn32)C1 [Linsitinib] (partner 1 µM)
How it was run: as §1

[4] = compound: C/C(=N\NC(=S)N1CCC1)/C2=CC=CC=N2 + Cc1cc(Nc2cc(N3CCN(C)CC3)nc(Sc3ccc(NC(=O)C4CC4)cc3)n2)n[nH]1 [Tozasertib] (partner 0.1 µM)
How it was run: as §1

SW 1573
relative viability ([1]; first compound 0.05 µM): 0.0449 | relative viability ([1]; first compound 0.1581 µM): 0.0562 | relative viability ([1]; first compound 0.5 µM): 0.134 | relative viability ([1]; first compound 1.581 µM): 0.065 | relative viability ([1]; first compound 5 µM): 0.0544 | relative viability ([2]; first compound 0.05 µM): 0.11 | relative viability ([2]; first compound 0.1581 µM): 0.123 | relative viability ([2]; first compound 0.5 µM): 0.138 | relative viability ([2]; first compound 1.581 µM): 0.102 | relative viability ([2]; first compound 5 µM): 0.0709 | relative viability ([3]; first compound 0.05 µM): 0.0916 | relative viability ([3]; first compound 0.1581 µM): 0.123 | relative viability ([3]; first compound 0.5 µM): 0.113 | relative viability ([3]; first compound 1.581 µM): 0.152 | relative viability ([3]; first compound 5 µM): 0.0935 | relative viability ([4]; first compound 0.05 µM): 0.0614 | relative viability ([4]; first compound 0.1581 µM): 0.0887 | relative viability ([4]; first compound 0.5 µM): 0.0999 | relative viability ([4]; first compound 1.581 µM): 0.0752 | relative viability ([4]; first compound 5 µM): 0.0626

PC-14
relative viability ([1]; first compound 0.05 µM): 0.0306 | relative viability ([1]; first compound 0.1581 µM): 0.0778 | relative viability ([1]; first compound 0.5 µM): 0.0467 | relative viability ([1]; first compound 1.581 µM): 0.041 | relative viability ([1]; first compound 5 µM): 0.0364 | relative viability ([2]; first compound 0.05 µM): 0.215 | relative viability ([2]; first compound 0.1581 µM): 0.11 | relative viability ([2]; first compound 0.5 µM): 0.0946 | relative viability ([2]; first compound 1.581 µM): 0.0983 | relative viability ([2]; first compound 5 µM): 0.0928 | relative viability ([3]; first compound 0.05 µM): 0.0952 | relative viability ([3]; first compound 0.1581 µM): 0.125 | relative viability ([3]; first compound 0.5 µM): 0.12 | relative viability ([3]; first compound 1.581 µM): 0.0874 | relative viability ([3]; first compound 5 µM): 0.117 | relative viability ([4]; first compound 0.05 µM): 0.0506 | relative viability ([4]; first compound 0.1581 µM): 0.0536 | relative viability ([4]; first compound 0.5 µM): 0.0474 | relative viability ([4]; first compound 1.581 µM): 0.05 | relative viability ([4]; first compound 5 µM): 0.0386

LK-2
relative viability ([1]; first compound 0.05 µM): 0.141 | relative viability ([1]; first compound 0.1581 µM): 0.174 | relative viability ([1]; first compound 0.5 µM): 0.177 | relative viability ([1]; first compound 1.581 µM): 0.167 | relative viability ([1]; first compound 5 µM): 0.142 | relative viability ([2]; first compound 0.05 µM): 0.197 | relative viability ([2]; first compound 0.1581 µM): 0.255 | relative viability ([2]; first compound 0.5 µM): 0.266 | relative viability ([2]; first compound 1.581 µM): 0.226 | relative viability ([2]; first compound 5 µM): 0.215 | relative viability ([3]; first compound 0.05 µM): 0.14 | relative viability ([3]; first compound 0.1581 µM): 0.154 | relative viability ([3]; first compound 0.5 µM): 0.18 | relative viability ([3]; first compound 1.581 µM): 0.114 | relative viability ([3]; first compound 5 µM): 0.125 | relative viability ([4]; first compound 0.05 µM): 0.166 | relative viability ([4]; first compound 0.1581 µM): 0.139 | relative viability ([4]; first compound 0.5 µM): 0.157 | relative viability ([4]; first compound 1.581 µM): 0.147 | relative viability ([4]; first compound 5 µM): 0.149

COR-L23
relative viability ([1]; first compound 0.05 µM): 0.116 | relative viability ([1]; first compound 0.1581 µM): 0.111 | relative viability ([1]; first compound 0.5 µM): 0.108 | relative viability ([1]; first compound 1.581 µM): 0.0709 | relative viability ([1]; first compound 5 µM): 0.0853 | relative viability ([2]; first compound 0.05 µM): 0.11 | relative viability ([2]; first compound 0.1581 µM): 0.119 | relative viability ([2]; first compound 0.5 µM): 0.12 | relative viability ([2]; first compound 1.581 µM): 0.0692 | relative viability ([2]; first compound 5 µM): 0.0727 | relative viability ([3]; first compound 0.05 µM): 0.129 | relative viability ([3]; first compound 0.1581 µM): 0.11 | relative viability ([3]; first compound 0.5 µM): 0.106 | relative viability ([3]; first compound 1.581 µM): 0.0712 | relative viability ([3]; first compound 5 µM): 0.0637 | relative viability ([4]; first compound 0.05 µM): 0.101 | relative viability ([4]; first compound 0.1581 µM): 0.0974 | relative viability ([4]; first compound 0.5 µM): 0.0768 | relative viability ([4]; first compound 1.581 µM): 0.0695 | relative viability ([4]; first compound 5 µM): 0.101

NCI-H1944
relative viability ([1]; first compound 0.05 µM): 0.197 | relative viability ([1]; first compound 0.1581 µM): 0.192 | relative viability ([1]; first compound 0.5 µM): 0.168 | relative viability ([1]; first compound 1.581 µM): 0.133 | relative viability ([1]; first compound 5 µM): 0.12 | relative viability ([2]; first compound 0.05 µM): 0.737 | relative viability ([2]; first compound 0.1581 µM): 0.909 | relative viability ([2]; first compound 0.5 µM): 0.221 | relative viability ([2]; first compound 1.581 µM): 0.164 | relative viability ([2]; first compound 5 µM): 0.149 | relative viability ([3]; first compound 0.05 µM): 0.875 | relative viability ([3]; first compound 0.1581 µM): 1.06 | relative viability ([3]; first compound 0.5 µM): 0.6 | relative viability ([3]; first compound 1.581 µM): 0.259 | relative viability ([3]; first compound 5 µM): 0.196 | relative viability ([4]; first compound 0.05 µM): 0.248 | relative viability ([4]; first compound 0.1581 µM): 0.181 | relative viability ([4]; first compound 0.5 µM): 0.127 | relative viability ([4]; first compound 1.581 µM): 0.0988 | relative viability ([4]; first compound 5 µM): 0.107

NCI-H1650
relative viability ([1]; first compound 0.05 µM): 0.158 | relative viability ([1]; first compound 0.1581 µM): 0.216 | relative viability ([1]; first compound 0.5 µM): 0.17 | relative viability ([1]; first compound 1.581 µM): 0.152 | relative viability ([1]; first compound 5 µM): 0.184 | relative viability ([2]; first compound 0.05 µM): 0.18 | relative viability ([2]; first compound 0.1581 µM): 0.199 | relative viability ([2]; first compound 0.5 µM): 0.19 | relative viability ([2]; first compound 1.581 µM): 0.153 | relative viability ([2]; first compound 5 µM): 0.175 | relative viability ([4]; first compound 0.05 µM): 0.121 | relative viability ([4]; first compound 0.1581 µM): 0.187 | relative viability ([4]; first compound 0.5 µM): 0.126 | relative viability ([4]; first compound 1.581 µM): 0.16 | relative viability ([4]; first compound 5 µM): 0.194

NCI-H2170
relative viability ([1]; first compound 0.05 µM): 0.34 | relative viability ([1]; first compound 0.1581 µM): 0.294 | relative viability ([1]; first compound 0.5 µM): 0.237 | relative viability ([1]; first compound 1.581 µM): 0.217 | relative viability ([1]; first compound 5 µM): 0.158 | relative viability ([2]; first compound 0.05 µM): 1.12 | relative viability ([2]; first compound 0.1581 µM): 1.09 | relative viability ([2]; first compound 0.5 µM): 0.269 | relative viability ([2]; first compound 1.581 µM): 0.183 | relative viability ([2]; first compound 5 µM): 0.162 | relative viability ([4]; first compound 0.05 µM): 0.659 | relative viability ([4]; first compound 0.1581 µM): 0.334 | relative viability ([4]; first compound 0.5 µM): 0.197 | relative viability ([4]; first compound 1.581 µM): 0.113 | relative viability ([4]; first compound 5 µM): 0.141

NCI-H1563
relative viability ([1]; first compound 0.05 µM): 0.5 | relative viability ([1]; first compound 0.1581 µM): 0.541 | relative viability ([1]; first compound 0.5 µM): 0.506 | relative viability ([1]; first compound 1.581 µM): 0.541 | relative viability ([1]; first compound 5 µM): 0.542 | relative viability ([2]; first compound 0.05 µM): 0.604 | relative viability ([2]; first compound 0.1581 µM): 0.557 | relative viability ([2]; first compound 0.5 µM): 0.526 | relative viability ([2]; first compound 1.581 µM): 0.553 | relative viability ([2]; first compound 5 µM): 0.527 | relative viability ([3]; first compound 0.05 µM): 0.684 | relative viability ([3]; first compound 0.1581 µM): 0.541 | relative viability ([3]; first compound 0.5 µM): 0.563 | relative viability ([3]; first compound 1.581 µM): 0.612 | relative viability ([3]; first compound 5 µM): 0.629

EBC-1
relative viability ([2]; first compound 0.05 µM): 0.173 | relative viability ([2]; first compound 0.1581 µM): 0.187 | relative viability ([2]; first compound 0.5 µM): 0.163 | relative viability ([2]; first compound 1.581 µM): 0.162 | relative viability ([2]; first compound 5 µM): 0.128 | relative viability ([3]; first compound 0.05 µM): 0.13 | relative viability ([3]; first compound 0.1581 µM): 0.19 | relative viability ([3]; first compound 0.5 µM): 0.137 | relative viability ([3]; first compound 1.581 µM): 0.0985 | relative viability ([3]; first compound 5 µM): 0.11

Calu-6
relative viability ([2]; first compound 0.05 µM): 0.117 | relative viability ([2]; first compound 0.1581 µM): 0.136 | relative viability ([2]; first compound 0.5 µM): 0.128 | relative viability ([2]; first compound 1.581 µM): 0.109 | relative viability ([2]; first compound 5 µM): 0.102 | relative viability ([3]; first compound 0.05 µM): 0.11 | relative viability ([3]; first compound 0.1581 µM): 0.1 | relative viability ([3]; first compound 0.5 µM): 0.127 | relative viability ([3]; first compound 1.581 µM): 0.115 | relative viability ([3]; first compound 5 µM): 0.108
